Assay results published in patent US10765638B2, “Particle formulation with polycation complex” (Yale University, priority 2017, dated 2020).

Experiments:
LC-1F = conditions: read-out: IC50 for erlotinib (printed in the Afatinib column, marked &), cancerrxgene.org; cited from earlier work
H1975 and H1975-OR cells = test: MTT proliferation assay; format: cell-based; conditions: 1 μM Osimertinib
Experimental: The H1975 and A549 cell lines were purchased from ATCC (Manassas, Va.), the PC9 cell line was a gift from Katie Politi, and the HCC-827 and HCC-827-GR lines were gifts from Jeff Engelman (MGH, Boston Mass.). Cell lines were cultured in RPMI 1640+10% FBS supplemented with penicillin and streptomycin (Gibco, Life Technologies, Grand Island, N.Y., US) in a humidified incubator with 5% CO2, and they were kept in culture no more than 4 months after resuscitation from the original stocks. No additional authentication was performed. Mycoplasma cell culture contamination was routinely checked and ruled out using the MycoAlert Mycoplasma Detection Kit (Lonza, Rockland, Me. USA). To generate a TKI resistant cell lines, either PC9 or H1975 cells were exposed to increasing concentrations of gefitinib or osimertinib, respectively. Gefitinib or Osimertinib concentrations were increased stepwise when cells resumed growth kinetics similar to the untreated parental cells over a dose range from 10 to 500 nM. Resistant cell cultures were obtained ˜8-12 weeks after initiation of drug exposure. To confirm the emergence of a therapeutic resistant, MTT assays were performed after allowing the cells to grow in drug-free conditions for at least 4 days.
Growth rates were determined by CellTiter 96 NonRadioactive Cell Proliferation Assay (Promega; Madison, Wis., USA) according to the manufacturer's directions. Briefly, NSCLC cells (2×103) untreated or treated with 10 μM NGI-1, 100 nM Gefitinib, or 1 μM Osimertinib (Selleck Chemicals), were seeded in triplicate in 96-wells plates and grown in culture medium containing 10% serum. The media was changed with or without new inhibitor every 48 h. Cell numbers were estimated after 0, 3, and 5 days by adding MTT (3-(4,5-dimethylthiazol-2-yl)-2,5-diphenyltetrazolium bromide) reagent to the wells 4 h before taking the spectrophotometric reading (absorbance at 570 nm).

H1975-OR xenografts = test: NSCLC xenograft tumor growth; format: in vivo, athymic Swiss nu/nu mice; conditions: 5 mg/kg osimertinib oral daily; 5 mg/kg NGI-1-NP as printed in b391 (20 mg/kg elsewhere in the source); blank NPs 926±253 mm3
Experimental: The effects of NGI-1 were evaluated in Six-to-eight-week old female athymic Swiss nu/nu mice bearing bilateral flank xenograft tumors. Five days after inoculation, mice were randomized to receive i.v. NGI-1 NPs (20 mg/kg) or blank NPs three times per week for a total of 8 doses. […] Tumor size was measured three times per week and volume was calculated according to the formula π/6×(length)×(width)^2.

[1] = Contessa et al., Clin Cancer Res. 2010; cited from earlier work
D54-ERLucT xenografts = test: Bioluminescent imaging of inhibition of N-linked glycosylation in xenografts; format: in vivo, mice; conditions: 24 hours; tunicamycin 1 mg/kg, positive control
Experimental: All experimental procedures were approved in accordance with IACUC and Yale University institutional guidelines for animal care and ethics and guidelines for the welfare and use of animals in cancer research (Workman et al., Br J Cancer, 102:1555-77 (2010)). NGI-1 delivery to glioma xenografts was evaluated using a bioluminescent imaging platform that detects inhibition of NLG (Contessa at al., Clin Cancer Res., 16:3205-14 (2010)). Ten days after subcutaneous injection of 1×10^7 gliomas cells, mice bearing palpable tumors were treated with control or NGI-1 NPs (20 mg/kg), or tunicamycin 1 mg/kg and imaged 5-30 minutes after delivery of i.p. luciferin (150 mg/kg). Signal intensity was quantified for a region of interest (ROI) encompassing each tumor and induction of bioluminscence was calculated by comparing peak bioluminescent activity from pre- and post-treatment imaging at 24 and 48 hours.

In the case of `C#Cc1cccc(Nc2ncnc3cc(OCCOC)c(OCCOC)cc23)c1` [erlotinib], the IC50 (LC-1F) is given as 390 nM.

With `C=CC(=O)Nc1cc(Nc2nccc(-c3cn(C)c4ccccc34)n2)c(OC)cc1N(C)CCN(C)C` [osimertinib] the “sensitivity of proliferation to osimertinib” value (H1975 and H1975-OR cells; H1975-OR cells) was “resistant”, the “sensitivity of proliferation to osimertinib” value (H1975 and H1975-OR cells; H1975 cells) was “sensitive” and the “mean tumor volume at day 78” value (H1975-OR xenografts) was 584±296 mm^3.

For tunicamycin, the toxicity [1] is given as “significant toxicity both in vitro and in vivo” and the induction of bioluminescence (D54-ERLucT xenografts) is given as 4.2 fold.
